Data: US4333933A, “Benzoguanamine derivatives, their production and pharmaceutical compositions containing the same” (Nippon Shinyaku Co., Ltd., priority 1980, dated 1982)

Test system: carrageenin edema
Experiment: Carrageenin edema inhibition activity (for rats)
Format: in vivo
Conditions: Rattus norvegicus, ip; for inhibition in vivo at 50 mg/kg: 50 mg/kg i.p.; for inhibition in vivo at 100 mg/kg: 100 mg/kg i.p.
From the text: In Table 2 below, carrageenin edema inhibition activity (for rats) of representative compounds of the present invention is illustrated: […]

| SMILES | inhibition in vivo at 50 mg/kg | inhibition in vivo at 100 mg/kg |
| --- | --- | --- |
| Nc1nc(NC(=O)c2cccnc2)nc(-c2ccc(Cl)cc2)n1 [Compound 1] | 56.8% | 57.2% |
| Nc1nc(NC(=O)c2cccnc2)nc(-c2cccc(Cl)c2)n1 [Compound 2] | 43.6% | 54.2% |
| Nc1nc(NC(=O)c2cccnc2)nc(-c2ccccc2Cl)n1 [Compound 3] | 37.1% | 45.5% |
| Nc1nc(NC(=O)c2cccnc2)nc(-c2ccc(Br)cc2)n1 [Compound 4] | 44.4% | 49.3% |
| Nc1nc(NC(=O)c2cccnc2)nc(-c2cccc(Br)c2)n1 [Compound 5] | 41.9% | 40.2% |
| Nc1nc(NC(=O)c2cccnc2)nc(-c2ccccc2I)n1 [Compound 9] | 38.1% | 40.5% |
| Nc1nc(NC(=O)c2cccnc2)nc(-c2ccc(F)cc2)n1 [Compound 10] | 53.8% | 56.1% |
| Nc1nc(NC(=O)c2cccnc2)nc(-c2cccc(F)c2)n1 [Compound 11] | 49% | 47.1% |
| Nc1nc(NC(=O)c2cccnc2)nc(-c2ccc(Cl)c(Cl)c2)n1 [Compound 13] | 40.9% | 49.2% |
| Nc1nc(NC(=O)c2cccnc2)nc(-c2cc(Cl)ccc2Cl)n1 [Compound 15] | 43.2% | 54.5% |
| Nc1nc(NC(=O)c2cccnc2)nc(-c2cc(Cl)ccc2F)n1 [Compound 19] | 34.2% | 47.8% |
| Nc1nc(NC(=O)c2cccnc2)nc(-c2ccc(Cl)cc2F)n1 [Compound 20] | 42.7% | 50.8% |
| Nc1nc(NC(=O)c2cccnc2)nc(-c2cc(Br)ccc2Br)n1 [Compound 21] | 35.6% | 40.6% |
| Nc1nc(NC(=O)c2cccnc2)nc(-c2cc(F)ccc2Cl)n1 [Compound 24] | 46.5% | 45.1% |
| Nc1nc(NC(=O)c2cccnc2)nc(-c2cc(F)ccc2Br)n1 [Compound 25] | 40.7% | 45.9% |
| Nc1nc(NC(=O)c2cccnc2)nc(-c2cc(F)ccc2F)n1 [Compound 27] | 51.2% | 53.6% |
| Nc1nc(NC(=O)c2cccnc2)nc(-c2ccc(Cl)cc2Br)n1 [Compound 28] | 42.8% | 48.4% |
| Nc1nc(NC(=O)c2cccnc2)nc(-c2cc(Br)ccc2Cl)n1 [Compound 29] | 38.7% | 49.2% |
